We go through two molecules from patent publication US20250221981A1, “MAT2A INHIBITOR AND/OR TSG101 INHIBITOR FOR USE IN ANTIVIRAL THERAPY” (CAMBRIDGE ENTERPRISE LIMITED, priority 2022, published 2025).

Experiment [1] relates to cell proliferation. The conditions noted are these: value used to set treatment concentration; read-out: proliferative IC50; cited from earlier work.
In experiment [2] the test system is BKPyV. Nature of the experiment: BKPyV infection of RPTE/TERT1 cells, immunofluorescence count of LTAg / VP1 positive cells. The format is cell-based, BK polyomavirus. The conditions noted are these: 48 hpi; for early gene (LTAg) expression, LTAg positive cells as a proportion of DAPI-positive cells / late gene (VP1) expression, VP1 positive cells as a proportion of DAPI-positive cells: particularly at double proliferative IC50 (20 µM PF-9366, 514 nM AG-270), MOI 1. As for the experimental part: (A) Effect of PF-9366 on viral early gene expression: Cells were infected with BKPyV (MOI 1) in media containing appropriate drug concentrations. At 1 hpi infectious media was removed, cells were washed and fresh media with appropriate drug concentrations was added. Cells were formaldehyde fixed at 48 hpi and stained for DAPI and LTAg expression and detected by fluorescence microscopy. The number of infected LTAg positive cells were recorded, normalized to cell number. n=3.
Effect of drug treatment on cellular replication and survival and viral early gene expression: Cells were infected with BKPyV (MOI 1) in media containing appropriate drug concentrations. At 1 hpi infectious media was removed, cells were washed and fresh media with appropriate drug concentrations was added. Cells were formaldehyde fixed at 48 hpi and stained for nuclear DAPI and LTAg expression, then detected by fluorescence microscopy. The number of cells per well were determined through DAPI analysis (i) Effect of drug treatment on viral early and late gene expression: The number of infected cells were determined by LTAg (early gene) and VP1 (late gene) expression (ii).
Treatment began 3 hours prior to infection and continued throughout infection. Cells were infected with BKPyV (MOI 1), at 1 hpi cells were washed with PBS and replenished with fresh drug treated media. At 48 hpi cells were fixed with 3% formaldehyde and stained for LTAg expression, and the nuclei counterstained with DAPI. The number of LTAg positive cells were counted and normalised to the total cell number in each condition, and the fold change in proportion of LTAg positive cells for each concentration of PF-9366 was normalised to untreated control.
To investigate whether MAT2A inhibition by a structurally different inhibitor to PF-9366 could cause similar effects, the effect of AG-270 on BKPyV infection was investigated. As above, drugs were used to treat cells from 3 hours prior to infection. Drug concentrations used were the IC50 value defined by inhibition of cell proliferation (proliferative IC50) or double the proliferative IC50, and DMSO was used as a control. Cells were infected with BKPyV (MOI 1), at 1 hpi cells were washed and fresh drug-containing media was added. At 48 hpi cells were fixed in 3% formaldehyde and stained for DAPI, viral early gene LTAg, and viral late gene VP1. The number of cells in each condition were counted and normalised to DMSO treated cells (FIG. 4A(i)). The number of cells represents both cell viability, and the ability of the drug in question to inhibit cellular proliferation.
For BKPyV infections, RPTE/TERT1, RPTE/TERT1-Cas9 or RPTE/TERT1 MAT2A KO cells were infected with BKPyV at either a multiplicity of infection (MOI) of 5 for growth curves or an MOI of 3 or 1 for all other experiments, diluted in appropriate medium. At 1 hour post infection (hpi) medium was removed, cells were washed twice with phosphate-buffered saline (PBS), and fresh medium was added with or without inhibitors. At 24, 48, 72 or 96 hpi cells were either harvested for western blot, RT qPCR or virus titre by FFU assay, or fixed for immunofluorescence analysis.
For fluorescence intensity analysis, 20 fields of view were captured for each experiment. All quantification analyses were carried out using ImageJ and an optimised robust automated detection pipeline Schindelin et al. (Nat Methods. 2012 Jun. 28; 9 (7): 676-82). […] LTAg-staining patterns across each field of view were measured by quantifying the fluorescence intensity using the Mean Grey Value (MGV) function of ImageJ and averaging the results for each experimental condition. Individual cell fluorescence intensity was determined by drawing polygon selections around each LTAg-positive nuclei in ImageJ and measuring the nuclear area, MGV and integrated density, then doing the same for background areas close to each nuclei measured. […]

Experiment [3] concerns Herpes Simplex Virus-1 (HSV-1). As to the kind of experiment: HSV-1 titre by plaque assay (HaCaT cells infected, titrated on VERO cells). The format is cell-based. Particulars: 20 μM, MOI 10, 16 hrs. As for the experimental part:
FIG. 9: Inhibition of MAT2A with PF-9366 reduces Herpes Simplex Virus-1 (HSV-1) virion assembly Immortalised keratinocyte (HaCaT) cells were plated and treated with 20 μM PF-9366 or DMSO control. After 3 hrs cells were infected with HSV-1 (MOI 10). After 16 hrs cells were harvested by scraping and either pelleted for western blot or freeze/thawed for titration. To titre: VERO cells were plated and the following day infected with 10-fold dilutions, at 1 hpi cells were overlayed with CMC/media. At 48 hpi cells were fixed and stained with toluidine blue. To western blot: Pellets were lysed and run on SDS-PAGE gel. Proteins were transferred overnight to nitrocellulose membranes. Membranes were probed for HSV-1 ICP0 and VP16 proteins and Tubulin as a control.
For HSV-1 infections HaCaT cells were infected with HSV-1 at a multiplicity of infection (MOI) of 10 diluted in appropriate medium. At 1 hour post infection (hpi) medium was removed, cells were washed twice with phosphate-buffered saline (PBS), and fresh medium was added with or without inhibitors. At 16 hpi cells were either harvested for western blot or virus titre by plaque assay.
For HSV-1, confluent VERO cell monolayers were infected with 10-fold dilutions of samples. […] Cells were fixed at 48 hpi and stained with toluidine blue, allowing plaques to be counted. […]

The test system of experiment [4] is Sindbis virus (SINV). As to the kind of experiment: SINV titre by plaque assay (BHK-21 cells infected, titrated on BSR cells). The conditions noted are these: 2 μM, MOI >10, 24 hrs, initial tests. The format is cell-based. As for the experimental part: (A) SINV and SFV4: BHK-21 cells were plated. The following day 2 μM PF-9366 or DMSO control was added to media. After 3 hrs cells were infected with SINV or SFV4 (MOI >10). After 24 hrs cells were harvested by scraping. Cells were either pelleted for western blot or freeze/thawed for titration. To titre: BSR cells were plated and the following day infected with 10-fold dilutions, at 1 hpi cells were overlayed with LMA in 2×MEM (+5% FCS). At 72 hpi cells were fixed and stained with toluidine blue.
For Alphavirus infections BHK-21 cells were infected with either SINV or SFV-4 at a multiplicity of infection (MOI) greater than 10, diluted in appropriate medium. At 1 hour post infection (hpi) medium was removed, cells were washed twice with phosphate-buffered saline (PBS), and fresh medium was added. At 24 hpi supernatants were harvested for virus titre by plaque assay.
For SINV and SFV4, confluent BSR cell monolayers were infected with 10-fold dilutions of samples. At 1 hpi cells were overlayed with low melting-point agarose in 2×MEM (+5% FCS). Cells were fixed at 72 hpi and stained with toluidine blue, allowing plaques to be counted.
TSG101 inhibitor Ilaprazole (Sigma-Aldrich) was diluted in 100% DMSO. […]

`COc1ccc(-c2c(Nc3ccccn3)[nH]c3c(C4=CCCCC4)c(-c4ccccc4)nn3c2=O)cc1` [AG-270]: in experiment [1], the IC50 (in general, the point on the concentration scale where inhibition reaches its midpoint) was 0.257 µM. In experiment [2], the “early gene (LTAg) expression, LTAg positive cells as a proportion of DAPI-positive cells” value is on record as “reduced” and the “late gene (VP1) expression, VP1 positive cells as a proportion of DAPI-positive cells” value is listed as “reduced”.

Take `CN(C)CCc1nnc2cc(-c3ccccc3)c3cc(Cl)ccc3n12` [PF-9366]: in experiment [1], the IC50 was 10 µM. The “reduction in HSV-1 viral titres” value in experiment [3] is recorded as “greater than 100 fold”. Moreover, in experiment [2] (40 μM, BKPyV MOI 1, normalised to untreated control), the “reduction in LTAg positive cells” value is listed as around 95%. Besides, in experiment [2] (PF-9366 concentrations of 5 μM and above, BKPyV MOI 1, treatment from 3 h prior to infection), the “number of LTAg positive cells” value is “significantly reduced”. In experiment [2], the “early gene (LTAg) expression, LTAg positive cells as a proportion of DAPI-positive cells” value is “reduced” and the “late gene (VP1) expression, VP1 positive cells as a proportion of DAPI-positive cells” value is “reduced”. Further, the “reduction in viral titre (SINV)” value in experiment [4] is reported as 7-10 fold.
